Assay results: publication PMC10014103, “The immunometabolite itaconate stimulates OXGR1 to promote mucociliary clearance during the pulmonary innate immune response” (The Journal of Clinical Investigation, 2023)
Where “and” joins values, the source holds several entries; their conditions need not be identical. Identical values can stand only once.

What was measured:
OXGR1 = assay: Cellular thermal shift assay of OXGR1; assay type: binding, human; settings: 1 mM ITA, 37 to 62 °C
Description: Supplementary Figure 4. ITA increases the thermostability of OXGR1
Cells expressing Myc-tagged BirA along with AviTag-tagged wildtype (A) or R110A mutant (B) OXGR1 were treated with 1 μM biotin for 16 hours in serum-free medium to biotinylate OXGR1 in native conformation. Cells were treated with or without 1mM ITA, lysed, and incubated under different temperatures (from 37 to 62℃) for 3 minutes.
Denatured protein was removed by centrifuge. Biotinylated OXGR1 was determined by Western blot and quantified. […]

human OXGR1 [1] = target: T1, human OXGR1 (Homo sapiens, UniProt Q96P68); assay: Fluo-4 assay in HEK293 cells expressing human OXGR1; assay type: cell-based; settings: Fluo-4 assay, hOXGR1 in HEK293 cells; read-out: EC50
Description: For the Fluo-4AM assay, OXGR1-expressing cells were loaded with 2 μM Fluo-4AM for 30 minutes at 37°C. Excess Fluo-4AM was then washed off with HBSS buffer. After incubation at 37°C for another 10 minutes, cells were transferred onto a 96-well plate.

mouse OXGR1 = target: T2, mouse OXGR1 (Mus musculus, UniProt Q6IYF8); assay: Aequorin assay (calcium mobilization) in HEK293 cells overexpressing mouse OXGR1; assay type: cell-based; settings: aequorin assay, mOXGR1 in HEK293 cells; read-out: EC50
T2 construct: expressed in transfected cells; host or cells: HEK293
T2 sequence (Q6IYF8 whole entry): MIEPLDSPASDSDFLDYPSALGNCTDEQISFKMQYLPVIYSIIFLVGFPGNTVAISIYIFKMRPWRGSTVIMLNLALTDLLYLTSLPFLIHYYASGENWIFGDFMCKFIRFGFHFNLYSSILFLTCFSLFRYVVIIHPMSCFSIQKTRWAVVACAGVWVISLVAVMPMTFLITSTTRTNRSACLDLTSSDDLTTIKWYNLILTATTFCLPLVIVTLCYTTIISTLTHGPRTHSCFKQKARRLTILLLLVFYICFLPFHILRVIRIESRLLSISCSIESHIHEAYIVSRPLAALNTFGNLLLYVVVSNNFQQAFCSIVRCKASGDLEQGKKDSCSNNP
Description: (§1) Thirty-six hours after transfection, cells were maintained in serum-free medium for 12 hours and then loaded with 5 μM coelenterazine for 3 hours. Cells were trypsinized and resuspended at a density of 5 × 10^5 cells/mL in HBSS supplemented with 10 mM HEPES and 0.5% BSA. Cell suspensions of 100 μL were aliquoted into 96-well plates.

mouse trachea = assay: Ex vivo trachea culture, cilia beating-derived fluorescent bead movement; settings: 500 μM ITA or 100 μM ATP
Description: Tracheas were harvested from mice and cut longitudinally through the middle of the trachealis muscle to expose the lumen of the trachea. Tracheas were then transferred into HBSS buffer and equilibrated for 30 minutes. With the lumen facing down, trachea tissues were transferred into 2 mL HBSS buffer supplemented with 0.5% methylcellulose, red fluorescent beads, 30 mM HEPES, and the indicated ligand. Bead flow was monitored with the BioTek Cytation 5 cell imaging system. Twenty individual beads were tracked from different fields of view in each condition, and the speed of each bead was calculated by […].

[2] = system: primary respiratory epithelial cells from Oxgr1+/+ and Oxgr1–/– mice; assay: Calcium imaging (Fluo-4AM) of primary mouse trachea epithelial cells; assay type: cell-based; settings: 670 μM ITA or 100 μM ATP
Description: For calcium imaging of human primary bronchial epithelial cells, cells were infected with 2 CRISPR lentiviruses targeting OXGR1 and cultured for 2 days before calcium imaging. For calcium imaging of primary mouse cells, freshly isolated mouse tracheas were cut into rings, placed onto collagen-coated dishes, and cultured in DMEM supplemented with 10% FBS. Cells were loaded with 5 μM Fluo-4AM for 30 minutes in HBSS buffer, washed twice, and incubated for another 15 minutes for fully deesterification of Fluo-4AM. Cells loaded with Fluo-4AM were monitored with the BioTek Cytation 5 Cell imaging system every 300 ms for a total of 1.5 minutes after ligand administration. Fluorescence was quantified with ImageJ software (NIH).

[3] = system: primary human respiratory epithelial cells (ALI culture); assay: Bead movement in ALI culture of primary human bronchial epithelial cells; assay type: cell-based; settings: 500 μM ITA, OXGR1-dependent
Description: (§2) . When they reached full confluence, the cells were differentiated by exposure to air and cultured in a serum-free medium for 20 days. ALI culturing of primary human bronchial epithelium was performed following the manufacturer’s manual ([…] Technologies). Briefly, cells were maintained in PneumaCult-Ex Plus medium on a Transwell insert. Medium on the lateral side was switched to PneumaCult-ALI medium. The apical side of the Transwell membrane was then carefully washed with prewarmed Dulbecco’s PBS (DPBS). Cells were differentiated by exposure to air for 3 weeks. The medium was changed every 2 days.
(§3) For the measurement of bead movement in ALI culture, the apical side of the ALI culture inserts was washed with PBS 5 times to fully remove mucus. The inserts were transferred to HBSS buffer supplemented with 30 mM HEPES and the indicated ligand, and 20 μL bath buffer containing red fluorescent beads was added to the apical side. After 15 minutes of equilibration, bead movement was monitored with the BioTek Cytation 5 cell imaging system.

FLAG-tagged OXGR1 [4] = target: T3, FLAG-tagged OXGR1 (Homo sapiens, UniProt Q96P68); assay: Endocytosis assay of FLAG-tagged OXGR1 in HEK293 cells; assay type: cell-based; settings: WT OXGR1, within 10 minutes of ligand treatment
T3 construct: expressed in transfected cells
Description: (§4) For endocytosis assays, HEK293 cells stably expressing FLAG-OXGR1 were chilled on ice in DMEM medium supplemented with 30 mM HEPES for 10 minutes. […] Unbound antibody was then washed off with prechilled HBSS buffer. […] After ligand stimulation, cells were fixed and permeabilized. Subcellular localization of FLAG-tagged OXGR1 was detected using FITC-donkey anti-rabbit antibody (Invitrogen, Thermo Fisher Scientific), and nuclei were stained with DAPI (MilliporeSigma). Immunofluorescence images were captured with a Leica SP8 laser-scanning confocal microscope.

FLAG-tagged OXGR1 [5] = assay: as above; assay type: cell-based, human; settings: after ITA treatment
Description: as §4

human OXGR1 [6] = target: T1, human OXGR1; assay: Stress fiber assay in NIH3T3 cells stably expressing OXGR1; assay type: cell-based, mouse; settings: 500 μM ITA, 30 minutes, G12/13 coupling
Description: For the stress fiber assay, NIH3T3 cells stably expressing OXGR1 were treated with 500 μM ITA or 10 μM lysophosphatidic acid (LPA) for 30 minutes. Cells were fixed with 4% paraformaldehyde and permeabilized with 0.1% Triton X-100. Stress fibers were stained with FITC-phalloidin (Invitrogen, Thermo Fisher Scientific). Nuclei were stained with DAPI. Immunofluorescence images were captured with a Leica SP8 laser-scanning confocal microscope.

[7] = system: human OXGR1 orthosteric site mutants; assay: Aequorin assay in HEK293 cells expressing mutant human OXGR1; assay type: cell-based; settings: effect of mutation on ligand-stimulated calcium response
Description: as §1

[8] = system: primary mouse respiratory epithelial cells (ALI culture); assay: Bead movement in ALI culture of primary mouse respiratory epithelial cells; assay type: cell-based; settings: 500 μM ITA, Oxgr1+/+ vs Oxgr1–/–
Description: as §2, §3

[9] = system: mucin 5b and β-defensin 1; assay: ELISA of mucin 5b and β-defensin 1 in BAL of P. aeruginosa infected mice; assay type: in vivo, mouse; settings: ITA intranasal supplementation, P. aeruginosa infection
Description: Mucins and antimicrobial polypeptides are essential immune defense components secreted by the respiratory tract ([41], [42]). To test the hypothesis that ITA/OXGR1 signaling may alter the concentration of mucins and antimicrobial polypeptides, we performed an ELISA to quantify the concentration of mucin 5b and β-defensin 1 in the mouse models of P. aeruginosa infection. […] It should be noted that Oxgr1 activation by ITA can simultaneously facilitate mucus secretion and mucus transport (Figure 4). These 2 “opposite” effects of ITA/OXGR1 on mucus may explain the observation of a lack of significant change in mucin 5b and β-defensin 1 in the airway’s surface liquid.

## C=C(CC(=O)O)C(=O)O [ITA, itaconate]
OXGR1
  thermal stability of WT OXGR1: increased the thermal stability
Human OXGR1 [1]
  EC50: 221 ± 107 µM
Mouse OXGR1
  EC50: 416 µM and ~400 µM
Mouse trachea
  movement of beads, trachea from Oxgr1+/+ mice: significantly increased the movement of beads
[2]
  calcium mobilization, Oxgr1+/+ cells: rapid calcium mobilization
[3]
  movement of beads: accelerated the movement of beads
FLAG-tagged OXGR1 [4]
  endocytosis of OXGR1: rapid endocytosis of OXGR1 was triggered
FLAG-tagged OXGR1 [5]
  endocytosis of R110A or R261A mutant OXGR1: did not undergo endocytosis
Human OXGR1 [6]
  stress fiber formation: failed to affect stress fiber formation
[7]
  calcium response, mutants C106A, R110A, H258A, R261A, I265A: completely abolished
  calcium response, mutants H114A, Y118F, I121A, I285A, R288A: dramatically impaired
[8]
  movement of beads: could accelerate the movement of beads in an Oxgr1-dependent manner
[9]
  level of mucin 5b in BAL: Neither ITA intranasal supplementation nor Irg1 or Oxgr1 KO altered the levels
  level of β-defensin 1 in BAL: Neither ITA intranasal supplementation nor Irg1 or Oxgr1 KO altered the levels
